{"source": "patent US20230263777A1", "about": "“STABLE SOLID FORMULATION OF AZILSARTAN OR PHARMACEUTICALLY ACCEPTABLE SALTS THEREOF” (PIRAMAL PHARMA LIMITED, priority 2020, published 2023)", "origin": "cited, not measured here", "data": [{"compound": "CCOc1nc2cccc(C(=O)OCc3oc(=O)oc3C)c2n1Cc1ccc(-c2ccccc2-c2noc(=O)[nH]2)cc1", "note": "[Azilsartan kamedoxomil, (5-methyl-2-oxo-2H-1,3-dioxol-4-yl)methyl 2-ethoxy-1-({4-[2-(5-oxo-4,5-dihydro-1,2,4-oxadiazol-3-yl)phenyl]phenyl}methyl)-1H-1,3-benzodiazole-7-carboxylate]", "values": [{"measurement": "Solubility in methanol", "setting": "methanol", "result": "freely soluble"}, {"measurement": "Solubility in water", "setting": "water", "result": "practically insoluble"}]}]}
